From ChEMBL document CHEMBL5036317, “Identification of Unique Quinazolone Thiazoles as Novel Structural Scaffolds for Potential Gram-Negative Bacterial Conquerors” (J Med Chem, 2021)
Values after ≈ are worked out from the molar mass of the structure shown.

Experiments:
Pseudomonas aeruginosa [1] = assay: Antibacterial activity against Pseudomonas aeruginosa assessed as inhibition of bacterial growth measured after 24 hrs by two-fold serial dilution method; format: functional
Enterococcus faecalis = assay: Antibacterial activity against Enterococcus faecalis assessed as inhibition of bacterial growth measured after 24 hrs by two-fold serial dilution method; format: functional
Acinetobacter baumannii = assay: Antibacterial activity against Acinetobacter baumanii assessed as inhibition of bacterial growth measured after 24 hrs by two-fold serial dilution method; format: functional
Escherichia coli [2] = assay: Antibacterial activity against Escherichia coli assessed as inhibition of bacterial growth measured after 24 hrs by two-fold serial dilution method; format: functional
[3] = Haemolytic activity in human erythrocytes incubated for 2 hrs; format: ADME, cell-based, Erythrocyte
Staphylococcus aureus [4] = assay: Antibacterial activity against Staphylococcus aureus ATCC 29213 assessed as inhibition of bacterial growth measured after 24 hrs by two-fold serial dilution method; format: functional
Staphylococcus aureus [5] = assay: Antibacterial activity against methicillin-resistant Staphylococcus aureus assessed as inhibition of bacterial growth measured after 24 hrs by two-fold serial dilution method; format: functional
Staphylococcus aureus [6] = assay: Antibacterial activity against Staphylococcus aureus ATCC 25923 assessed as inhibition of bacterial growth measured after 24 hrs by two-fold serial dilution method; format: functional
Pseudomonas aeruginosa [7] = assay: Antibacterial activity against Pseudomonas aeruginosa ATCC 27853 assessed as inhibition of bacterial growth measured after 24 hrs by two-fold serial dilution method; format: functional
Staphylococcus aureus [8] = assay: Antibacterial activity against Staphylococcus aureus assessed as inhibition of bacterial growth measured after 24 hrs by two-fold serial dilution method; format: functional
Escherichia coli [9] = assay: Antibacterial activity against Escherichia coli ATCC 25922 assessed as inhibition of bacterial growth measured after 24 hrs by two-fold serial dilution method; format: functional
Klebsiella pneumoniae = assay: Antibacterial activity against Klebsiella pneumoniae assessed as inhibition of bacterial growth measured after 24 hrs by two-fold serial dilution method; format: functional

SMILES	MIC (Pseudomonas aeruginosa [1]) [µg/mL]	MIC (Enterococcus faecalis) [µg/mL]	MIC (Acinetobacter baumannii) [µg/mL]	MIC (Escherichia coli [2]) [µg/mL]	HC50 at 2 h [3] [µg/mL]	MIC (Staphylococcus aureus [4]) [µg/mL]	MIC (Staphylococcus aureus [5]) [µg/mL]	MIC (Staphylococcus aureus [6]) [µg/mL]	MIC (Pseudomonas aeruginosa [7]) [µg/mL]	MIC (Staphylococcus aureus [8]) [µg/mL]	MIC (Escherichia coli [9]) [µg/mL]	MIC (Klebsiella pneumoniae) [µg/mL]
O=C(/C(=C/c1ccc(F)cc1)n1cnc2cc(Cl)ccc2c1=O)c1nccs1	2 (≈ 4.86 µM)	4 (≈ 9.71 µM)	256 (≈ 622 µM)	16 (≈ 38.8 µM)	> 250	2 (≈ 4.86 µM)	4 (≈ 9.71 µM)	4 (≈ 9.71 µM)	2 (≈ 4.86 µM)	8 (≈ 19.4 µM)	4 (≈ 9.71 µM)	512 (≈ 1240 µM)
O=C(/C(=C/c1ccccc1)n1cnc2cc(Cl)ccc2c1=O)c1nccs1	4 (≈ 10.2 µM)	1 (≈ 2.54 µM)	4 (≈ 10.2 µM)	8 (≈ 20.3 µM)	222	2 (≈ 5.08 µM)	4 (≈ 10.2 µM)	2 (≈ 5.08 µM)	2 (≈ 5.08 µM)	8 (≈ 20.3 µM)	4 (≈ 10.2 µM)	2 (≈ 5.08 µM)
O=C(/C(=C/c1ccc2ccccc2c1)n1cnc2cc(Cl)ccc2c1=O)c1nccs1	4 (≈ 9.01 µM)	16 (≈ 36 µM)	16 (≈ 36 µM)	32 (≈ 72.1 µM)	192	16 (≈ 36 µM)	4 (≈ 9.01 µM)	4 (≈ 9.01 µM)	4 (≈ 9.01 µM)	4 (≈ 9.01 µM)	4 (≈ 9.01 µM)	32 (≈ 72.1 µM)
O=C(/C(=C/c1ccc[nH]1)n1cnc2cc(Cl)ccc2c1=O)c1nccs1	256 (≈ 669 µM)	512 (≈ 1340 µM)	64 (≈ 167 µM)	256 (≈ 669 µM)	203	2 (≈ 5.22 µM)	512 (≈ 1340 µM)	512 (≈ 1340 µM)	256 (≈ 669 µM)	512 (≈ 1340 µM)	64 (≈ 167 µM)	256 (≈ 669 µM)
O=C(/C(=C/c1ncc[nH]1)n1cnc2cc(Cl)ccc2c1=O)c1nccs1	16 (≈ 41.7 µM)	512 (≈ 1330 µM)	512 (≈ 1330 µM)	256 (≈ 667 µM)	> 250	512 (≈ 1330 µM)	512 (≈ 1330 µM)	512 (≈ 1330 µM)	16 (≈ 41.7 µM)	512 (≈ 1330 µM)	64 (≈ 167 µM)	64 (≈ 167 µM)
Cc1ccc(/C=C(/C(=O)c2nccs2)n2cnc3cc(Cl)ccc3c2=O)c(C)c1	64 (≈ 152 µM)	512 (≈ 1210 µM)	128 (≈ 303 µM)	512 (≈ 1210 µM)	203	4 (≈ 9.48 µM)	512 (≈ 1210 µM)	512 (≈ 1210 µM)	64 (≈ 152 µM)	512 (≈ 1210 µM)	64 (≈ 152 µM)	512 (≈ 1210 µM)
O=C(/C(=C/c1ccc(C(F)(F)F)cc1)n1cnc2c(Cl)cc(Cl)cc2c1=O)c1nccs1	8 (≈ 16.1 µM)	64 (≈ 129 µM)	1 (≈ 2.01 µM)	4 (≈ 8.06 µM)	> 250	8 (≈ 16.1 µM)	4 (≈ 8.06 µM)	8 (≈ 16.1 µM)	1 (≈ 2.01 µM)	128 (≈ 258 µM)	4 (≈ 8.06 µM)	1 (≈ 2.01 µM)
O=C(/C(=C/c1ccc(N2CCCCC2)cc1F)n1cnc2cc(Cl)ccc2c1=O)c1nccs1	128 (≈ 259 µM)	512 (≈ 1030 µM)	128 (≈ 259 µM)	512 (≈ 1030 µM)	181	2 (≈ 4.04 µM)	512 (≈ 1030 µM)	512 (≈ 1030 µM)	32 (≈ 64.6 µM)	512 (≈ 1030 µM)	512 (≈ 1030 µM)	512 (≈ 1030 µM)
O=C(/C(=C/c1ccc(Cl)cc1)n1cnc2cc(Cl)ccc2c1=O)c1nccs1	2 (≈ 4.67 µM)	4 (≈ 9.34 µM)	256 (≈ 598 µM)	16 (≈ 37.4 µM)	> 250	4 (≈ 9.34 µM)	8 (≈ 18.7 µM)	4 (≈ 9.34 µM)	1 (≈ 2.33 µM)	16 (≈ 37.4 µM)	2 (≈ 4.67 µM)	64 (≈ 149 µM)
O=C(/C(=C/c1csc2ccccc12)n1cnc2cc(Cl)ccc2c1=O)c1nccs1	32 (≈ 71.1 µM)	512 (≈ 1140 µM)	32 (≈ 71.1 µM)	16 (≈ 35.6 µM)	> 250	16 (≈ 35.6 µM)	512 (≈ 1140 µM)	256 (≈ 569 µM)	16 (≈ 35.6 µM)	512 (≈ 1140 µM)	16 (≈ 35.6 µM)	128 (≈ 284 µM)
O=C(/C(=C/c1ccc([N+](=O)[O-])cc1)n1cnc2cc(Cl)ccc2c1=O)c1nccs1	4 (≈ 9.11 µM)	2 (≈ 4.56 µM)	4 (≈ 9.11 µM)	64 (≈ 146 µM)	> 250	2 (≈ 4.56 µM)	8 (≈ 18.2 µM)	4 (≈ 9.11 µM)	4 (≈ 9.11 µM)	2 (≈ 4.56 µM)	2 (≈ 4.56 µM)	16 (≈ 36.5 µM)
Cc1ccc2c(/C=C(/C(=O)c3nccs3)n3cnc4cc(Cl)ccc4c3=O)c[nH]c2c1	64 (≈ 143 µM)	64 (≈ 143 µM)	8 (≈ 17.9 µM)	128 (≈ 286 µM)	> 250	32 (≈ 71.6 µM)	32 (≈ 71.6 µM)	32 (≈ 71.6 µM)	8 (≈ 17.9 µM)	512 (≈ 1150 µM)	16 (≈ 35.8 µM)	64 (≈ 143 µM)
Cc1ccc(/C=C(/C(=O)c2nccs2)n2cnc3cc(Cl)ccc3c2=O)cc1	4 (≈ 9.81 µM)	8 (≈ 19.6 µM)	1 (≈ 2.45 µM)	32 (≈ 78.5 µM)	> 250	4 (≈ 9.81 µM)	64 (≈ 157 µM)	2 (≈ 4.9 µM)	1 (≈ 2.45 µM)	4 (≈ 9.81 µM)	1 (≈ 2.45 µM)	128 (≈ 314 µM)
